From a melting point compilation (Tetko et al.)

| SMILES | melting point [°C] |
| --- | --- |
| CNc1ccc2oc(CC3OC4(CCC3C)OC(C(C)C(=O)c3ccc[nH]3)C(C)CC4C)nc2c1C(=O)O (configuration not stated) | 182 |
| CC(=O)OC1CCC2(C)C(C1)CC1(OCCO1)C1C3CCC(=O)C3(C)CCC12 (configuration not stated) | 240 |
| CC(C)(CC(=O)O)C(=O)O | 140 |
| CC1(C)OC(C)(C(O)(c2ccccc2)c2ccccc2)CCC1C(=O)O (configuration not stated) | 163 |
| FC(F)(F)C(F)(Cl)C(Cl)(Cl)C(F)(F)F (configuration not stated) | 4 |
| CCCC#CCCCC(=O)O | -3 |
| CCOc1cc(C(=O)O)cc(OCC)c1OCC | 112 |
| CC1=C(C(=O)OC(C)C)C(c2ccc3c(c2)OCO3)NC(=O)N1 (configuration not stated) | 186 |
| O=Cc1ccc(N2CCCCC2)cc1 | 62 to 63 |
| CCCCOc1ccc(NC(=O)C(F)(F)C(F)(F)C(F)(F)C(F)(F)C(F)(F)C(F)(F)C(F)(F)C(F)(F)F)cc1 | 136 to 138 |
| NC(=NO)C(N)=NO | 200 to 204 |
| CCn1cc(C(=O)O)c(=O)c2cc(F)c(N3CCNCC3)nc21 | 222 |
| O=C(CBr)c1ccc(OC(F)F)cc1 | 63 to 65 |
| Cc1cc(C(=O)Cl)nn1C | 73 to 74 |
| CCOC(=O)c1c(C)oc(NC(=O)Nc2ccc(F)cc2)c1C(=O)OCC | 146 to 148 |
| C=CC=CC#N | -60 |
| FC(F)(F)C1(F)C(F)(F)C(F)(F)C(F)(F)C(F)(F)C1(F)F | -37 |
| CC1CCCC(=O)C1 (configuration not stated) | -73 |
| OCc1csc(N2CCOCC2)n1 | 118 to 120 |
| O=C(O)CCC(F)(F)C(F)(F)C(F)(F)C(F)(F)C(F)(F)C(F)(F)F | 62 to 64 |
| CCOc1ccc(C=O)cc1OCC | 22 |
| CCCCCCC(=O)OC(=O)CCCCCC | -12 |
| CC(=O)c1[nH]c(C)cc1C | 118 to 121 |
| CC(C)(C)c1cc(O)c(O)c(C(C)(C)C)c1 | 96 to 99 |
| CCCCCCCCCCCC(=O)OCCOC(=O)CCCCCCCCCCC | 56.6 |
| OCC1OC(n2cnc3c2N=CNCC3O)CC1O (configuration not stated) | 220 |

| SMILES | melting point [°C] |
| --- | --- |
| CCCCCC=O | -56 |
| CCCCOC(=O)CC(=O)OCCCC | -83 |
| CC(C)(C)OC(=O)NCC1CCNCC1 | 106 to 108 |
| Brc1c(Br)c(Br)c(-c2c(Br)c(Br)c(Br)c(Br)c2Br)c(Br)c1Br | 375 |
| CNC(c1ccccc1)C(NC)c1ccccc1 (configuration not stated) | 48 to 51 |
| N#Cc1c(-c2ccc(Br)cc2)cc2c(C#N)c(=N)n(C(=O)c3ccccc3)n2c1N | 190 |
| Cc1nn(C)c2ncc(C(=O)O)c(Cl)c12 | 269 |
| C=C1CCOC2(C(O)C(C)(O)CO)NC(=O)C1(O)NC2=O (configuration not stated) | 188 |
| Cc1cc(OC(=O)C(F)(F)F)c(C)cc1OC(=O)C(F)(F)F | 89 |
| O=c1c(O)c(-c2ccc(O)cc2)oc2cc(O)cc(O)c12 | 277 |
| COc1cc2c(cc1OC)C(c1ccc(C)cc1)N(C(C)=O)CC2 (configuration not stated) | 183 to 185 |
| CC(=O)C=Cc1ccc(C=CC(C)=O)cc1 | 163 |
| COc1cc(C(=O)c2ccc(Cl)cc2)c([N+](=O)[O-])cc1OC | 142 |
| O=[N+]([O-])c1ccc(F)c2nonc12 | 52 |
| CC(C)(C)C(=O)Nc1ncccc1C=O | 87 to 91 |
| Cc1cnc2c(C(=O)O)c(Cl)ccc2c1 | 253 |
| O=C1C(Cl)=C(Cl)C(Cl)=C(Cl)C1(Cl)Cl | 46 to 49 |
| O=C(O)c1c(F)c(F)c(F)c(F)c1C(=O)O | 163 |
| CN(N=Cc1ccc(Br)cc1)P(=O)(N1CC1)N1CC1 | 118 |
| CCCCCCCCCCCCCCCCOP(=O)(O)OCCCCCCCCCCCCCCCC | 74.5 |
| Cc1cc(C)c(C)c(S(=O)(=O)NCC(=O)O)c1C | 167 |
| CCOC(=O)c1csc(C2CCN(C(=O)OC(C)(C)C)CC2)n1 | 71 to 73 |
| Cc1ccc(C=C[N+](=O)[O-])cc1 | 96 to 99 |
| CC(C)(C)c1cc(C(C)(C)C)cc(C(C)(C)C)c1 | 71 |
| CC12CCC(O)CC1CCC1C2CCC2(C)C1CCC2(C)O (configuration not stated) | 164 |
| OC1OCCCC1(Cl)Cl (configuration not stated) | 87 to 90 |

| SMILES | melting point [°C] |
| --- | --- |
| CC(=O)OC[C@H]1O[C@@H](OC(C)=O)[C@H](OC(C)=O)[C@@H]1OC(C)=O | 79 to 81 |
| Oc1c(F)cc(Br)cc1Br | 32 |
| COC1C(O)C(C)OC(OC2C(Oc3cccc4c(O)c5c(=O)oc6ccc(C)c7c(=O)oc(c34)c5c67)OC(C)C(O)C2O)C1O (configuration not stated) | 185 |
| COc1ccc(C2(C(=O)O)CCCCC2)cc1 | 172 to 177 |
| CC(=O)Nc1ccc(S(=O)(=O)Nc2ccc([N+](=O)[O-])cc2)cc1 | 240 |
| CC(C)CCCCCOC(=O)c1ccccc1C(=O)OCCCCCC(C)C | -4 |
| Cn1ccc(=O)[nH]c1=O | 237 |
| CC(=O)OC(OC(C)=O)c1cccc([N+](=O)[O-])c1 | 72 |
| Cc1ccc(NC(=O)C(C)c2ccc(C)cc2)cc1 (configuration not stated) | 105 |
| CC(=O)c1c(O)c(C)c(O)c2c1OC1=CC(=O)C(C(C)=O)C(=O)C12C (configuration not stated) | 204 |
| N#Cc1ccc(OC2CCOCC2)cc1 | 109 to 112 |
| O=Cc1cn(Cc2ccccc2)c2ccccc12 | 108 to 110 |
| C=C(C)CCCCCCCCCCCCC | -7 |
| Cc1cc(C)c(Cl)c(O)c1Cl | 87.5 |
| O=C1/C(=C/c2ccc([N+](=O)[O-])cc2)SC(=S)N1CNc1ccc([N+](=O)[O-])cc1 | 189 |
| CC1N=C(S)N2C(C)N=C(S)N12 (configuration not stated) | 182 to 184 |
| Cc1cc(Cl)cc(Cl)c1CN | 54 |
| CCOC(=O)Nc1c([N+](=O)[O-])cc(Cl)cc1[N+](=O)[O-] | 167 |
| Cc1cncc(N2CCC(C(=O)O)CC2)n1 | 151 to 152 |
| C1CCCCCC2OC2CCCC1 (configuration not stated) | -7 |
| O=C(O)c1ccncc1C(=O)O | 262 |
| C=C1C(=O)C23C4CC5C(C)(C)CCCC56COC(CC1C2OC(C)(C)O4)C63 (configuration not stated) | 163 |
| Nc1ccc(Cl)c(C(F)(F)F)c1 | 37 |
| CC(C)CN(CC(C)C)CC(C)C | -21.8 |
| CCCCOCCOCCOC(C)=O | -32 |
| NS(=O)(=O)c1ccc(SCCO)cc1 | 112 |

Results, then the compound that gave them:

| melting point [°C] | SMILES |
| --- | --- |
| 149 | Clc1n[nH]c2ccccc12 |
| 156 to 158 | O=Cc1ccc(-c2cccc([N+](=O)[O-])c2)o1 |
| 197 to 199 | NC(=O)c1ccc(-c2ccccn2)s1 |
| 114 | COC(=O)C1(S(=O)(=O)c2ccccc2)CCCCC1 |
| 120 to 121 | Nc1n[nH]c(N)c1Cc1ccccc1Cl |
| 95 | CCOC(=O)c1c(SC)nn(C(=O)c2ccccc2)c1N |
| 181 to 184 | Clc1ccc(C2NN=C3c4ccccc4CCC32)cc1 (configuration not stated) |
| 206 | NNc1ccc([N+](=O)[O-])cn1 |
| 189 | Clc1cccc2cc3c(Cl)cccc3cc12 |
| 103 to 105 | CSc1ccc(C(=O)O)s1 |
| 31 to 33 | Cc1ccc(C=O)c2ccccc12 |
| 54 to 57 | O=Cc1ccc(OCc2ccccc2F)cc1 |
| 183 to 189 | Cc1cccc2c1C(=O)NC2=O |
| 152 to 153 | Cc1noc(-c2ccccc2C(=O)O)n1 |
| 27 to 28 | COC(=O)/C(=C/c1ccccc1)Cc1ccccc1 |
| 202 | O[Si](O)(c1ccccc1)c1ccccc1 |
| 159 to 160 | O=C(CNC(=O)OCC1c2ccccc2-c2ccccc21)Oc1c(F)c(F)c(F)c(F)c1F |
| 160 to 162 | CCSC(SCC)=C(C#N)c1ccccn1 |
| 14 | Cc1ccc2c(C)c(C)ccc2c1 |
| 5.9 | CC(C)COC(=O)c1ccccc1O |
| 70 | CCOC(=O)c1nc2ccccc2s1 |
| 271 to 272 | Cn1c(=S)[nH]c2ccccc2c1=O |
| 142 to 143 | COC(=O)c1ccc(OCNC(=O)c2ccccc2)cc1 |
| 115 | O=C(c1cccs1)c1coc(-c2ccc(Cl)cc2)c1S(=O)(=O)c1ccccc1 |
| 245 to 246 | O=[N+]([O-])c1ccc(C2Nn3c(nnc3-c3cccnc3)S2)cc1 (configuration not stated) |

| melting point [°C] | SMILES |
| --- | --- |
| 188 | CCOC(=O)c1cc(-c2ccc(Cl)cc2)oc1C=O |
| 8 | Fc1cccc(-c2cccc(F)c2)c1 |
| 200 | Brc1c(Br)c(Br)c(Oc2ccccc2)c(Br)c1Br |
| 314 to 317 | O=c1[nH]c2ccc([N+](=O)[O-])cc2[nH]1 |
| 185 | Cn1c(/C(C#N)=C/c2c(Cl)cccc2Cl)nc2ccccc21 |
| 62 | CCCCc1cc2ccccc2c(O)c1C(C)=O |
| 33.5 | C/C=C/c1ccc(O)c(OC)c1 |
| 170 to 172 | NC(=O)c1cccc(Cl)c1Cl |
| 124 | OCc1ccc(O)cc1 |
| 109 | c1ccc(-c2noc(-c3ccccc3)n2)cc1 |
| 170 | N#Cc1ccc(S(N)(=O)=O)cc1 |
| 109 to 110 | Cc1noc(-c2ccccc2)c1CO |
| 37.5 | c1ccc(CNc2ccccc2)cc1 |
| 74.5 | COC(=O)C1(S(=O)(=O)c2ccccc2)CC1 |
| 190 | Nc1cccc2c(N)cccc12 |
| 60 to 62 | O=S(=O)(Cl)Cc1ccccc1Cl |
| 87.5 to 90.8 | N#Cc1cccc(C(=O)Cc2cccc(Cl)c2)c1 |
| 47 to 52 | O=C(Cl)C(Cl)(c1ccccc1)c1ccccc1 |
| 133 to 137 | Nc1cc(O)c(Cl)cc1Cl |
| 192 | O=C(O)/C(=C\c1ccccc1)c1ccccc1[N+](=O)[O-] |
| 116 to 118 | COc1ccc(C(C)=O)cc1CCl |
| 31 | C=Cc1ccc(C=C)cc1 |
| 182 | O=C1C(c2ccccn2)=[N+]([O-])c2ccccc21 |
| 105 | CCn1ccc2ccccc21 |
